According to patent US11534504B2, “Compositions and methods for stabilizing coelenterazine and analogs and derivatives thereof” (Promega Corporation, priority 2018, dated 2022):
Blank lines part the entries; values can stand above or below the compound they belong to.

Legend:
[1] = Analytical HPLC of Pluronic F-127 formulated substrates reconstituted in water (Examples 34-36); format: physicochemical
Experimental: 2.5 mgs of Pluronic® F-127 (Sigma Aldrich) were massed out into […] snap-top Eppendorf tubes. The polymer was heated to 70° C. in a water bath until melted, becoming a clear solution. […] 5 μL of this stock was added to the melted polymer and pipetted to mix. […] Condition 2—After addition of substrate, the substrate/polymer solution was further diluted with 45 μL of water, frozen, and lyophilized overnight.
Samples from both conditions 1 and 2 were reconstituted in water, diluted to 100 μM, and analyzed for chemical integrity via analytical HPLC (FIG. 54).
This formulation was also prepared for the coelenterazine analog, furimazine. 2.5 mgs of Pluronic® F-127(Sigma Aldrich) were massed out into 1.5 mL, snap-top Eppendorf tubes. The polymer was heated to 70° C. in a water bath until melted. A 10 mM stock solution of furimazine was prepared in EtOH. 5 μL of this stock was then added to the melted polymer and pipetted to mix. […] Condition 2—After addition of substrate, the substrate/polymer solution was further diluted with 45 μL of water, frozen, and then lyophilized overnight.
25 mgs of Pluronic® F-127 were massed out into a 1.5 mL, snap-top Eppendorf tube. The polymer was heated to 70° C. in a water bath until melted. […] An additional 50 μL of EtOH was used to wash and aid transfer of the substrate into the polymer solution. The solvent was removed under reduced pressure without heat.
After lyophilization, each sample was reconstituted with either 500 μL, 400 μL, 250 μL, or 100 μL water, respectively.

[2] = Absorbance of reconstituted furimazine compositions (Example 2); format: physicochemical
Experimental: Bulk solid furimazine was diluted in ethanol to a final concentration of 10 mM (solution 1). […] After mixing, vials containing solutions 3a-e were placed in dry ice to freeze for 1 hour. These frozen stocks where then lyophilized overnight for form dry pullulan matrices containing furimazine. […] Absorbance spectra of the formulated dry furimazine (50 nmols) with increasing amounts of pullulan after reconstitution in the PBS buffer are shown in FIG. 4A. Formulated furimazine with pullulan led to an increase in furimazine absorbance in aqueous solution. Concentration of furimazine was determined by Beer's law using the extinction coefficient of furimazine in methanol (21000 M^−1cm^−1) with absorbance measured at 254 nm. […] Absorbance of the formulated furimazine (95 μg) with increasing amounts of pullulan after reconstitution in the PBS buffer are shown in FIG. 4B. The solid furimazine formulated with increasing concentrations of pullulan matrix led to an increased in absorbance, and thus furimazine concentration in PBS buffer, compared to the conditions that contained only furimazine without pullulan.

[3] = molecular target: T1, cell culture expressing NanoLuc® enzyme (Oplophorus gracilirostris, UniProt Q9GV45, A31E/A60N/A81I/F95D/I117V/K70R/L54V/L99Q/M102K/N193R/P142E/Q151K/Q38R/Q45L/V71I/Y165I); assay: Luminescence intensity of Nano-Glo substrate formulations with cell culture expressing NanoLuc (Examples 30-33); format: cell-based; conditions: Example 32; 100 mM HP-β-CD
T1 construct: expressed in transfected cells
Experimental: One volume of Nano-Glo® Luciferase Assay Substrate (Promega Cat. #N113) was combined with 50 volumes of Nano-Glo® Luciferase Assay Buffer (Promega Cat. #N112) containing sodium ascorbate at concentrations ranging from 0 to 300 mM. The solutions were incubated at 37° C. prior to assay at several time points. Nano-Glo® Luciferase Assay Substrate used according to manufacturer's instructions (stored at −20° C. during the course of the experiment and reconstituted for each time point) was used as a positive control. A cell culture expressing NanoLuc® enzyme was used as a sample for each time point. One volume of reconstituted Nano-Glo® Luciferase Assay Buffer was mixed with one volume of sample. After 3 minutes, the luminescence intensity was measured with a Bio-Tek Synergy® H1 96-well plate reader. For each sample, the luminescence intensity was background subtracted and normalized to the −20° C. control signal.
A 4× furimazine solution was prepared by diluting the stock 1:25 in a buffer containing 200 mM MES pH 6.0, 200 mM hydroxypropyl-β-cyclodextrin (HP-β-CD), and 600 mM sodium ascorbate. The solution was lyophilized for 48 hours using a Virtis Advantage Pro® Lyophilizer. […] After 3 min, the luminescence intensity was measured with a Bio-Tek Synergy H1 96-well plate reader. […] For each sample, the luminescence intensity was background subtracted and normalized to the −20° C. control signal. […]

T1 sequence (Q9GV45 28-196 with tags or gaps with the stated changes limits assumed): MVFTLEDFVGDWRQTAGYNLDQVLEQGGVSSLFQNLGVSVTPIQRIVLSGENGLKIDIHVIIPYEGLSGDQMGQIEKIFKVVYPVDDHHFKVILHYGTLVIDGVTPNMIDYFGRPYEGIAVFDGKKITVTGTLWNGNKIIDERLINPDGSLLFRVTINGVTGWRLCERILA

Area Percent, peak at retention time 6.969-6.985 min ([1]; Example 34): 1.571%
Compound: O=c1c(Cc2ccco2)nc2c(Cc3ccccc3)[nH]c(-c3cccc(O)c3)cn1-2 [JRW-0238, 8-benzyl-2-(furan-2-ylmethyl)-6-(3-hydroxyphenyl)imidazo[1,2-a]pyrazin-3(7H)-one]

absorbance at 254 nm ([2]; 19.08 μg furimazine in 0.5 mL PBS pH 6.8, 30 minutes at room temperature): 0.0571
calculated concentration of furimazine in solution ([2]; Beer's law from absorbance at 254 nm, 19.08 μg in 0.5 mL PBS pH 6.8): 0.0082 mM
Area Percent, peak at retention time 6.104-6.109 min ([1]; Example 35): 0.705%
Area Percent, peak at retention time 6.541-6.548 min ([1]; Example 35): 1.407%
Area Percent, peak at retention time 7.949-7.957 min ([1]; Example 35): 1.030%
Area Percent, peak at retention time 5.028-5.038 min (main peak) ([1]; Example 35, furimazine, 100 μM): 96.858%
Compound: O=c1c(Cc2ccco2)nc2c(Cc3ccccc3)[nH]c(-c3ccccc3)cn1-2 [furimazine, 8-benzyl-2-(furan-2-ylmethyl)-6-phenylimidazo[1,2-a]pyrazin-3(7H)-one]

Compound: hydroxypropyl-β-cyclodextrin [HP-β-CD]
signal enhancement compared to Nano-Glo buffer alone [3]: 15 to 20%
